{
  "source": "patent US20230405003A1",
  "about": "“APPLICATION OF THYMIDINE DERIVATIVE IN PREPARATION OF DRUGS” (ONQUALITY PHARMACEUTICALS CHINA LTD., priority 2020, published 2023)",
  "key": {"[1]": {"test_system": "5-FU-induced diarrhea in Balb/c mice", "assay": "5-FU-induced diarrhea mouse model (70 mg/kg/d i.p. for three days)", "type": "in vivo", "details": "5-FU 70 mg/kg/d i.p. three days; for Food Uptake / Survival Rate / Diarrhea Grade: 12 days; for Diarrhea Grade: score 0-4; for Δ % BW on Day 9: (BW day 0 − BW day 9)/BW day 0, ± SEM", "method": "Male Balb/c mice (7-8 weeks, 23-25 g) were i.p. injected at a dose of 70 mg/kg/d, and the injection was performed for three days. The mice in the group of blank was injected with 0.9% NaCl, and evaluated for the effect by observing the change of diarrhea grade, food uptake, and weight change. The severity of diarrhea was scored in accordance with the following standards: 0: normal feces, 1: soft feces, 2: slightly wet, soft feces, 3: wet, unformed feces, with moderate coloration in perianal region, 4: watery feces with heavy coloration of hair in perianal region. The severity of diarrhea was evaluated by occurrence scores of various grades of diarrhea (Scores 0 to 4) and average score of diarrhea. […] The models were stable, and satisfied the experimental requirements.\nThe male Balb/c mice (7-8 weeks, 23-25 g) were fed and adapted for 1 week, and then divided into groups, with 10 mice in each group for administration test. 5-FU was dissolved in a 0.9% NaCl solution, and the mice in the model group and the treatment group were all i.p. injected at a dose of 70 mg/kg/d. The administration doses are shown in Table 6, and the modeling was completed in three days. While modeling of injection administration of 5-FU, the thymidine derivative or the combination of thymidine derivative and uridine derivative was administered by gavage, a series of compounds were dissolved in a PBS solution containing 5% DMSO+1% HPMC. The mice were daily observed for counting the diarrhea status, food uptake, weight change (A % BW) (the weight changes recorded in the table is the value on Day 9) and other information. After 12 days, the experiments were completed and statistically analyzed for the results."}, "[2]": {"test_system": "human colon cancer cell HCT116 xenograft", "assay": "Effect of thymidine derivative gel on therapeutical effect of capecitabine, HCT116 xenograft nude mice", "type": "in vivo, mouse", "details": "oral capecitabine 1.5 mmol/kg, 0.5% or 2% T1 gel on the back once per day, 14 days", "method": "A BALB/C nude mouse (human colon cancer cell HCT116 xenograft) model was established. After the model was stable, the model mice were divided into four groups (in which the average tumor size of each of the 4 groups was kept as consistent as possible). Except the blank group (containing 5 mice), there were 10 mice in each group, which were subject to gavage and application experiments.\nCapecitabine was dissolved in a mixed solution of castor oil:ethanol=1:1 (volume ratio). Prior to gavage, the mixture was diluted with PBS to the desired concentration (diluted for about 3 times with PBS solution). […]\nA: Group of blank: 5 mice with tumors, no gavage and no drug application; B: blank group: 10 mice with tumors, oral gavage with capecitabine (1.5 mmol/kg), application with blank gel on the back (once per day for 14 days); C: 0.5% T1 group: 10 mice with tumors, oral gavage of capecitabine, application with 0.5% T1 gel (administration method and frequency are the same as those in group B); D: 2% T1 gel group: 10 mice with tumors, oral gavage of capecitabine, application of 2% T1 gel (administration method and frequency are the same as those in group B). […] The tumor size was measured and recorded every 2 days. After 14 days of the experiment, the mice were dissected to take out the tumor, which was weighed and recorded."}, "[3]": {"test_system": "hand-foot syndrome caused by Cytarabine in rats", "assay": "Rat model of hand-foot syndrome caused by cytarabine, gel application", "type": "in vivo", "details": "Cytarabine 120 mg/kg twice per day, 30 days", "method": "(§1) After SD rats were fed and adapted for one week (about 200 g), the rats were divided into groups, with 10 rats in each group. Then, the rats were subject to gavage administration. Capecitabine was dissolved in a 1:1 mixed solution of castor oil and ethanol and diluted for three times with PBS buffer. After gavage, the rats were fixed with a fixed cylinder, and a gel of thymidine derivative (or a compounded gel of thymidine derivative and uridine derivative) was applied to double hind paws (about 1 cm*3 cm) of the rats in group of administration (the types and concentrations are shown in Table 4), and a blank gel was applied to the group of blank (as a blank control). After approximately 4 hours of application, the rats were released after 4 hours, wiped with clean water to remove any residual drug at the application site, and allowed back to the cage. The thymidine derivative gel (or the compounded gel of thymidine derivative and uridine derivative) was administered with gavage every day. The gavage and application tests are repeated daily until the group of blank has developed obvious hand-foot syndrome.\n(§2) The effects of thymidine derivative or a combination of thymidine derivative and uridine derivative on the chemotherapeutic drug-induced hand-foot syndrome in a rat model were tested according to the method in Examples 30-40. At the same time, paws of rats after treatment with the drug were taken and observed for their inflammation by hematoxylin-eosin staining (HE) and immunohistochemical staining (IHC).\n(§3) The test thymidine derivative or the combination of thymidine derivative and uridine derivative, as well as the final concentration of the test compounds were shown in Table 8. Table 8 lists the animal experiment combination of a chemotherapeutical drug and the thymidine derivative gel (or the compound gel of thymidine derivative and uridine derivative) and the corresponding experimental results (wherein, the data in the column of control rate=the occurrence rate of hand-foot syndrome in Group of blank—the occurrence rate of hand-foot syndrome in Group of administration)."}, "[4]": {"test_system": "hand-foot syndrome caused by Doxorubicin in rats", "assay": "Rat model of hand-foot syndrome caused by doxorubicin, gel application", "type": "in vivo", "details": "Doxorubicin 7 mg/kg tail intravenous injection once every three days for 20 days, gel 3 wt%, 30 days", "method": "as §1, §2, §3"}},
  "data": [
    {"smiles": "CC(=O)OCC1OC(n2cc(C)c(=O)[nH]c2=O)CC1OC(C)=O", "note": "(stereo not drawn) [T1]", "values": [
      {"measurement": "Food Uptake", "setting": "[1]; 37 mpk BID PO", "result": 155},
      {"measurement": "Survival Rate", "setting": "[1]; 37 mpk BID PO", "result": 100, "unit": "%"},
      {"measurement": "Diarrhea Grade", "setting": "[1]; 37 mpk BID PO", "result": 1.4},
      {"measurement": "Food Uptake", "setting": "[1]; 75 mpk BID PO", "result": 100},
      {"measurement": "Survival Rate", "setting": "[1]; 75 mpk BID PO", "result": 80, "unit": "%"},
      {"measurement": "Diarrhea Grade", "setting": "[1]; 75 mpk BID PO", "result": 1.3},
      {"measurement": "Food Uptake", "setting": "[1]; 150 mpk BID PO", "result": 89},
      {"measurement": "Survival Rate", "setting": "[1]; 150 mpk BID PO", "result": 80, "unit": "%"},
      {"measurement": "Diarrhea Grade", "setting": "[1]; 150 mpk BID PO", "result": 1.5},
      {"measurement": "Δ % BW on Day 9", "setting": "[1]; 37 mpk BID PO", "result": "4.3% ± 3.7"},
      {"measurement": "Δ % BW on Day 9", "setting": "[1]; 75 mpk BID PO", "result": "3.8% ± 1.6"},
      {"measurement": "Δ % BW on Day 9", "setting": "[1]; 150 mpk BID PO", "result": "16.3% ± 6.5"},
      {"measurement": "tumor volume with T1 gel versus blank gel", "setting": "[2]", "result": "close to or slightly smaller than that of Group of blank gel"}
    ]},
    {"smiles": "CC(=O)O[C@H]1C[C@H](n2cc(C)c(=O)[nH]c2=O)O[C@@H]1CO", "note": "[T2]", "values": [
      {"measurement": "Food Uptake", "setting": "[1]; 75 mpk BID PO", "result": 123},
      {"measurement": "Survival Rate", "setting": "[1]; 75 mpk BID PO", "result": 100, "unit": "%"},
      {"measurement": "Diarrhea Grade", "setting": "[1]; 75 mpk BID PO", "result": 1.4},
      {"measurement": "Δ % BW on Day 9", "setting": "[1]; 75 mpk BID PO", "result": "6.6% ± 3.1"}
    ]},
    {"smiles": "CC(=O)OC[C@H]1O[C@@H](n2cc(C)c(=O)[nH]c2=O)C[C@@H]1O", "note": "[T3]", "values": [
      {"measurement": "Food Uptake", "setting": "[1]; 50 mpk BID PO", "result": 109},
      {"measurement": "Survival Rate", "setting": "[1]; 50 mpk BID PO", "result": 70, "unit": "%"},
      {"measurement": "Diarrhea Grade", "setting": "[1]; 50 mpk BID PO", "result": 1.6},
      {"measurement": "Δ % BW on Day 9", "setting": "[1]; 50 mpk BID PO", "result": "8.4% ± 3.2"}
    ]},
    {"smiles": "COc1ccc2cc([C@H](C)C(=O)OC[C@H]3O[C@@H](n4cc(C)c(=O)[nH]c4=O)C[C@@H]3O)ccc2c1", "note": "[T25]", "values": [
      {"measurement": "Control Rate Forepaws", "setting": "[3]; gel 3 wt%", "result": 42.86, "unit": "%"},
      {"measurement": "Control Rate Hindpaws", "setting": "[3]; gel 3 wt%", "result": 57.14, "unit": "%"},
      {"measurement": "Control Rate Forepaws", "setting": "[4]", "result": 37.50, "unit": "%"},
      {"measurement": "Control Rate Hindpaws", "setting": "[4]", "result": 62.50, "unit": "%"}
    ]},
    {"smiles": "Cc1cn([C@H]2C[C@H](O)[C@@H](COC(=O)[C@H](C)c3ccc(CC(C)C)cc3)O2)c(=O)[nH]c1=O", "note": "[T32]", "values": [
      {"measurement": "Control Rate Forepaws", "setting": "[3]; gel 2 wt%", "result": 33.33, "unit": "%"},
      {"measurement": "Control Rate Hindpaws", "setting": "[3]; gel 2 wt%", "result": 33.33, "unit": "%"}
    ]}
  ]
}
